Here are results for one compound from patent US20190142835A1, “INHIBITION OF AUTOPHAGY USING PHOSPHOLIPASE A2 INHIBITORS” (OREGON HEALTH & SCIENCE UNIVERSITY, priority 2017, published 2019).

SMILES strings stand for the structures. A value given as a limit tells only on which side of the number the result lay.

In assay [1] the test system is ACHN cells. The experiment in a line: Autophagy flux validation (immunofluorescence, immunoblot, mCherry-EGFP-LC3 reporter, MDC, TEM). The format is cell-based, human. The source says:
Next, we stably expressed a mChery-EGFP-LC3 reported in ACHN cells. This reporter for autophagic flux takes advantage of the fact that EGFP fluorescence is quenched in the acidic environment of the autolysosome relative to mCherry. […] This method to measure flux has been extensively validated and accurately quantitates autophagic flux induction by multiple stimuli and chemical and genetic inhibition of autophagy. […] LC3-I is normally converted into LC3-II (LC3-I covalently bound to phosphatidylethanolamine) during autophagosome formation but is converted back to LC3-I by protease cleavage during autophagosome maturation.
Cells were plated in 6 well dishes and treated the following day with the indicated agents. Treatments were for 24 hours, after which cells were washed with ice cold PBS and lysed with RIPA buffer (Sigma). Phosphatase inhibitor cocktail set II and protease inhibitor cocktail set III (EMD Millipore) were added at the time of lysis. Lysates were centrifuged at 15,000 g×10 min at 4 degrees C. Protein concentrations were calculated based on a BCA assay (Thermo Scientific) generated standard curve. Proteins were resolved using the NuPAGE Novex Mini Gel system on 4% to 12% Bis-Tris Gels (Invitrogen). For western blotting, equal amounts of cell lysates (15-20 μg of protein) were resolved with SDSPAGE, and transferred to membranes. The membrane was probed with primary antibodies, washed, and then incubated with corresponding fluorescent secondary antibodies and washed. The fluorescent signal was captured using LI-COR (Lincoln, Nebr.) Odyssey Imaging System, and fluorescent intensity was quantified using the Odyssey software where indicated. The following antibodies were used for Western blots: p-S6 (S240/244), S6, LC3B, p-Akt(S473), p-Akt(T308), Akt, cleaved caspase3 (Cell Signaling Technologies). p-Stat3 (Y705), Stat3 and β-actin (AC15) (Abcam). Ki67 (Dako) and cleaved caspase3 (Cell Signaling Technologies) were used for immunohistochemistry. […] BX795 and GDC0941 were purchased from Sigma.
Slides were plated on coverslips and allowed to adhere for 24 hours. After adherence, cells were treated with drug for 24 hours. After treatment, drug was removed and cells were washed once in PBS. Cells were labeled with a […] concentration of autofluorescent marker monodansylcadaverine (MDC) in PBS for 10 min at 37 C. Cells were fixed in 4% formaldehyde for 15 min at room temperature. Cells were washed in PBS 2×5 min, and mounted on slides using Dako mounting media with dapi. Coverslips were sealed with clear nail polish and imaged with 3DHistech MIDI Scanner as described above.
Background: A western blot detects proteins with antibodies after separation by electrophoresis.

For assay [2], the system named is Atg5 deficient cells (Atg5−/−). The experiment in a line: Autophagy induction in Atg5 deficient MEFs. It counts as cell-based, mouse.
Assay [3] concerns ACHN cells. The experiment in a line: Transcriptomic analysis with gene set enrichment (GSEA). The format is cell-based, human.
The subject of assay [4] is human RCC cells (ACHN and SN12C). Kind of assay: Phosphoproteomics screen and kinase substrate enrichment analysis. The format is cell-based. Conditions: phosphoproteome. On the procedure:
Enriched phospho-peptides were digested with trypsin and analyzed by mass spectroscopy following the published “Cell Signaling Technology” protocol.
MS raw files were analyzed via MaxQuant version 1.5.3.30 [73] and MS/MS fragmentation spectra were searched using Andromeda against human canonical and isoform sequences in Swiss-Prot (downloaded in September 2016 from http://uniprot.org). Quantitative phosphopeptide data were log10 transformed and missing data were imputed before applying quantile normalization as previously described. Hierarchical clustering was performed on the Cluster 3.0 program, using distance that is based on the Pearson correlation and applying pairwise average linkage analysis. Java Treeview was used to visualize clustering results.
Kinase substrate enrichment analysis (KSEA) was performed as previously described. […] Permutation analysis was conducted to calculate statistical significance. The normalized enrichment score was calculated by dividing the enrichment score by the average of the absolute values of all enrichment scores from the permutation analysis.

The subject of a further assay is SN12C cells. Kind of assay: Apoptosis (Caspase 3/7-Glo), SN12C. The format is cell-based, human. The conditions noted are these: 72 h. How it is done: Apoptosis was determined using Caspase 3/7-Glo assay kit (Promega) following the manufacturer's instructions. Briefly, 2000 cells per well were plated in 96 well plates and cultured for 72 h. […] Caspase 3/7 activity was measured using a luminometer. Luminescence values were normalized by cell numbers.

Another assay has as its system ACHN xenografts. Kind of assay: ACHN xenograft study. It counts as in vivo. How it is done: (§1) 6-week old mice were utilized for human renal cell carcinoma xenografts. For both ACHN and SN12C cell lines 2×10^6 cells were diluted in 50 μl of PBS and 50 μl of Matrigel (BD Biosciences) and were injected subcutaneously into the right and left flank of each mouse. Tumors were monitored until they reached an average size of 50-80 mm3 (approximately 2 weeks), at which point treatments were begun. […] MK2206 (60 mg/kg/day) were administered by oral gavage 2-3 day/week. […] Tumors and mouse weights were measured twice weekly. At least 6-8 mice per treatment group were included. All mice were euthanized using CO2 inhalation followed by cervical dislocation per institutional guidelines at Oregon Health and Science University. Experiments were approved by the Institutional Animal Care and Use Committee at OHSU.
(§2) Immunostaining was performed following deparaffinization and rehydration of slides. Antigen retrieval was performed in a pressure cooker using citrate buffer (pH 6.0) for 4 min. Nonspecific binding was blocked using Vector mouse IgG blocking serum 30 min at room temperature. Samples were incubated at room temperature with rabbit monoclonal antibodies pS6 (CST #5364) cleaved caspase 3 (CST#9661), and Ki67 (Dako#M7240).
Slides were developed with Vector Immpress rabbit IgG (#MP7401) and Vector Immpress mouse IgG (#MP7400) for 30 min at room temperature. Chromogenic detection was performed using Vector Immpact DAB (#SK4105) for 3 min. Slides were counterstained with hematoxylin. A 3DHistech MIDI Scanner (Perkin Elmer) was used to capture whole slide digital images with a 20× objective. Images were converted to into MRXS files and computer graphic analysis was completed using inForm 1.4.0 Advanced Image Analysis Software (Perkin Elmer).
Mouse tumor size was analyzed by 2-way ANOVA with time and drug as factors, using GraphPad Prism. Mouse weight during treatment was analyzed by repeated measures 2-way ANOVA, with time and drug as factors. A P value less than 0.05 was considered statistically significant. Immunohistochemistry: P-values were calculated using one-way ANOVA, with Bonferroni's multiple comparison test. * denotes P<0.05, ** denotes P<0.01, and *** denotes P<0.001 throughout this disclosure. Metabolite fold-changes were computed and visualized in Python script, using the openpyxl package (for importing Excel files) and the matplotlib package (for visualizing fold changes).

The next assay deals with SN12C xenografts. Kind of assay: SN12C xenograft study. The format is in vivo. How it is done:
as §1, §2
Slides were developed with Vector Immpress rabbit IgG (#MP7401) and Vector Immpress mouse IgG (#MP7400) for 30 min at room temperature. Chromogenic detection was performed using Vector Immpact DAB (#SK4105) for 3 min. Slides were counterstained with hematoxylin. A 3DHistech MIDI Scanner (Perkin Elmer) was used to capture whole slide digital images with a 20× objective. […]
Mouse tumor size was analyzed by 2-way ANOVA with time and drug as factors, using GraphPad Prism. Mouse weight during treatment was analyzed by repeated measures 2-way ANOVA, with time and drug as factors. […] Immunohistochemistry: P-values were calculated using one-way ANOVA, with Bonferroni's multiple comparison test. * denotes P<0.05, ** denotes P<0.01, and *** denotes P<0.001 throughout this disclosure. […]

Setting [5] is: transmission electron microscopy.

For the compound `N#CCNC(=O)c1ccc(-c2ccnc(Nc3ccc(N4CCOCC4)cc3)n2)cc1` [CYT387], the “p62 protein expression and phosphorylated-S6 levels by immunofluorescence staining” value in the assay on ACHN cells [1] (cells on coverslips) was “decreased p62 protein expression and phosphorylated-S6 levels”. Besides, the “phosphorylation of Y705-STAT3” value in the assay on ACHN cells [1] (immunoblot) is listed as “decrease in phosphorylation of Y705-STAT3”. The LC3-II levels entry in the assay on ACHN cells [1] (immunoblot, more pronounced with E64D/pepstatin) is “increased LC3-II levels”. Moreover, in the assay with ACHN cells [1] (monodansylcadaverine staining), the MDC autoflorescence entry is “increased MDC autoflorescence”. Moreover, the “time to reduction in LC3B lipidation after removal of drug” value in the assay on ACHN cells [1] (reversal of autophagy) was not above 24 h. Further, the “mChery-EGFP-LC3 reporter of autophagic flux” value with ACHN cells [1] (stably expressed reporter) was “decreased expression of green-yellow cells and increased expression of red cells”. In the assay with ACHN cells [1] (setting [5]), the “number of double-membraned autophagosomes” value is recorded as “increased the number of double-membraned autophagosomes”; the “number of mitochondria and lipid droplets” value was “increased number of mitochondria and lipid droplets”. Besides, the autophagy induction entry in assay [2] is reported as “did not induce autophagy”. In the assay with ACHN cells [3], the “expression of genes involved in glycolysis such as PFKB3 and HK2” value was “downregulated genes involved in glycolysis”. Also, in assay [4], the RICTOR phosphorylation entry is reported as “hypophosphorylated at T^1135”; the “STAT3 Y^705 phosphorylation” value is “trended towards hypophosphorylation of STAT3 Y^705”; the “TSC2 phosphorylation (T^1462, S^1798)” value is listed as “hypophosphorylated at two inhibitory phosphoresidues”; the “insulin receptor (INSR) Y^1189 phosphorylation” value was “hyperphosphorylation”. For the same compound, in assay [4], the “ribosomal protein S6 (RPS6) phosphorylation” value is “trended towards hypophosphorylation”. In the assay on SN12C cells, the “apoptosis (cleaved-caspase 3/7)” value is given as “little or no effect on apoptosis”. For the same compound, the “apoptosis (cleaved-caspase3) in tumors” value in the assay on ACHN xenografts (ACHN xenograft tumors) was “minimal impact on apoptosis”. Moreover, in the assay with ACHN xenografts (ACHN, CYT387 50 mg/kg/day or MK2206 60 mg/kg/day oral gavage), the “antitumor effect of single agent” value was “exhibited antitumor effect”. Besides, the “number of adipophilin-positive LDs in tumors” value in the assay on ACHN xenografts (treatment day 40, ACHN xenograft tumors, CYT387<MK2206<CYT387+MK2206, p=0.0046) was “significantly and incrementally increased”. The “apoptosis (cleaved-caspase3) in tumors” value in the assay with SN12C xenografts (SN12C xenograft tumors) is given as “minimal impact on apoptosis”. Moreover, the “antitumor effect of single agent” value in the assay on SN12C xenografts (SN12C, CYT387 50 mg/kg/day or MK2206 60 mg/kg/day oral gavage) is reported as “exhibited antitumor effect”.
